Experiments:
[1] = DPPH radical scavenging activity; conditions: mean ± SD, n = 3
Procedure: DPPH scavenging activity was measured using the method of Xiong et al., albeit with minor modifications. […] After shaking, the mixture was stored in the dark for 30 min at room temperature, and, finally, the absorbance was measured at 517 nm. Ascorbic acid served as the positive control. The percentage of DPPH scavenging activity was calculated using the following formula: Inhibition(%)=(C-S)/C∗100 where C = the absorbance of the control, and S = the absorbance of the extract.

[2] = TEAC test (ABTS radical scavenging activity); conditions: mean ± SD, n = 3
Procedure: The free radical scavenging activities of extracts were also determined via the TEAC test using ABTS radical following the method reported by Wang et al.. […] Trolox was used as a positive control. The percentage of ABTS free radical scavenging activity was calculated using the following formula: Inhibition(%)=(C−S)/C∗100 Data were expressed in terms of the decrease in ABTS scavenging activity by 50%.

TYR = system: TYR; design: method as in PMID 30458808, PMID 26059994; conditions: cited from earlier work
α-amylase = system: α-amylase; design: method as in PMID 36115306; conditions: cited from earlier work
α-glucosidase = conditions: cited from earlier work
zebrafish embryos = experiment: Zebrafish embryo pigmentation (whitening effect); format: in vivo, Danio rerio; conditions: 30 µg/mL, 72 hpf, control = 100% pigmentation
Procedure: Adult zebrafish specimens (male and female) were maintained in a temperature-controlled aquarium (28.5 °C) with light-dark cycles and regularly fed with Artemia salina larvae. After natural deposition, the laid eggs were collected and incubated at 28.5 °C. After 24 h, all the eggs were observed under a stereomicroscope (SMZ-171 Series, Motic, Hong Kong, China) to select the fertilized ones. The vitality test and whitening effect were evaluated in vivo on zebrafish embryos according to the following method. […] Control embryos were incubated with embryo water (negative control). After 48 h of incubation at 28 °C (72 hpf), the effects of the treatment were observed using a stereomicroscope (SMZ-171 Series, Motic) equipped with a digital camera (Moticam® 5 plus) for image acquisition. The abnormal phenotypes and mortality of each treated group were documented. […] The images were converted to gray scale, and the pixel measurements analyzer program was used to count the area of the zebrafish image pigmentation. The quantification of pigmentation was expressed as a percentage change compared to the control group, which was considered to be 100%. All experiments were performed in compliance with the European Directive 2010/63/EU and following the ethical guidelines described by the National Institute of Health Guide for the Care and Use of Laboratory Animals.

SMILES: O=C1O[C@H]([C@@H](O)CO)C(O)=C1O [Ascorbic acid]
- DPPH (IC50 µg/mL) [1]: 16.95 ± 1.20 µg/mL

SMILES: Cc1c(C)c2c(c(C)c1O)CCC(C)(C(=O)O)O2 (stereo not shown) [Trolox]
- TEAC (IC50 µg/mL) [2]: 13.08 ± 0.02 µg/mL

SMILES: O=c1c(O[C@@H]2O[C@H](CO)[C@H](O)[C@H](O)[C@H]2O)c(-c2ccc(O)c(O)c2)oc2cc(O)cc(O)c12 [hyperoside, Hyperoside]
- TYR inhibition (TYR): effective TYR inhibitors
- manner of α-amylase inhibition (α-amylase): competitive

SMILES: O=c1cc(-c2ccc(O)cc2)oc2c([C@@H]3O[C@H](CO)[C@@H](O)[C@H](O)[C@H]3O)c(O)cc(O)c12 [vitexin, Vitexin]
- mechanism of action on α-glucosidase (α-glucosidase): uncompetitive
- TYR inhibition (TYR): effective TYR inhibitors

SMILES: NC(=S)Nc1ccccc1 [1-Phenyl-2-thiourea (PTU), 1-Phenyl-2-thiourea]
- embryo pigmentation, % vs. control (zebrafish embryos): 36.00%
